Test results published in ChEMBL document CHEMBL4680185, “Discovery of novel cyclin-dependent kinase (CDK) and histone deacetylase (HDAC) dual inhibitors with potent in vitro and in vivo anticancer activity” (Eur J Med Chem, 2020).
Calls of active or inactive are those of the source. The rule behind the calls is not given here.

What was measured:
SMMC-7721 = experiment: cells; type: functional, cell-based; conditions: Homo sapiens, SMMC-7721, 72 h
Description: Antiproliferative activity against human SMMC7721 cells assessed as inhibition of cell growth incubated for 72 hrs by CCK-8 assay

A-375 [1] = experiment: Antimigratory activity against human A375 cells assessed as inhibition of cell migration at 0.25 uM measured after 48 hrs by cell scratch assay; type: functional, cell-based
[2] = Cytotoxicity against mouse NIH/3T3 cells incubated for 72 hrs by CCK-8 assay; type: cell-based; conditions: NIH3T3, 72 h
NCI-H460 [3] = experiment: cells; type: functional; conditions: Homo sapiens, time 72 hrs, read-out: GI
A-375 [4] = experiment: Induction of apoptosis in human A375 cells assessed as number of apoptotic cells at 2 uM incubated for 48 hrs by annexin V-FITC/PI based flow cytometric analysis relative to control; type: functional
HCT-116 [5] = experiment: cells; type: functional; conditions: Homo sapiens, time 72 hrs, read-out: GI
HeLa = experiment: cells; type: functional, cell-based; conditions: Homo sapiens, 72 h
Description: Antiproliferative activity against human Hela cells assessed as inhibition of cell growth incubated for 72 hrs by CCK-8 assay

HCT-116 [6] = experiment: cells; type: functional; conditions: Homo sapiens, time 72 hrs, read-out: GI; remark: listed apart in the source
NCI-H460 [7] = experiment: cells; type: functional, cell-based; conditions: Homo sapiens, NCI-H460, 72 h
Description: Antiproliferative activity against human H460 cells assessed as inhibition of cell growth incubated for 72 hrs by CCK-8 assay

A-375 [8] = experiment: cells; type: functional, cell-based; conditions: Homo sapiens, A-375, 72 h
Description: Antiproliferative activity against human A375 cells assessed as inhibition of cell growth incubated for 72 hrs by CCK-8 assay

HCT-116 [9] = experiment: cells; type: functional, cell-based; conditions: Homo sapiens, HCT-116, 72 h
Description: Antiproliferative activity against human HCT116 cells assessed as inhibition of cell growth incubated for 72 hrs by CCK-8 assay

CDK6/cyclin D3 = CDK6/cyclin D3 (Homo sapiens, UniProt Q00534); experiment: Inhibition of recombinant human full length CDK6/cyclin D3 incubated for 10 mins by ADP-Glo reagent assay; type: protein-complex assay
HCT-116 [10] = experiment: Induction of apoptosis in human HCT116 cells assessed as number of apoptotic cells at 2 uM incubated for 48 hrs by annexin V-FITC/PI based flow cytometric analysis relative to control; type: functional
NCI-H460 [11] = experiment: cells; type: functional; conditions: Homo sapiens, time 72 hrs, read-out: GI; remark: listed apart in the source
[12] = target: Cyclin-dependent kinase 4/cyclin D1 (Homo sapiens, UniProt P11802); experiment: Inhibition of recombinant human full length CDK4/cyclin D1 expressed in Sf9 cells incubated for 10 mins by ADP-Glo reagent assay
NCI-H460 [13] = experiment: Antimigratory activity against human H460 cells assessed as inhibition of cell migration at 0.5 uM measured after 48 hrs by cell scratch assay; type: functional, cell-based
[14] = target: Cyclin-dependent kinase 7/ cyclin H (Homo sapiens, UniProt P50613); experiment: Inhibition of recombinant human full length CDK7/cyclin H1 expressed in Sf9 cells incubated for 10 mins by ADP-Glo reagent assay
Histone deacetylase 2 = Histone deacetylase 2 (Homo sapiens, UniProt Q92769); experiment: Inhibition of human recombinant HDAC2 preincubated for 10 mins followed by addition of substrate fluor De Lys green measured after 30 mins by fluorescent plate reader analysis
Sequence of Histone deacetylase 2 (Q92769 whole entry): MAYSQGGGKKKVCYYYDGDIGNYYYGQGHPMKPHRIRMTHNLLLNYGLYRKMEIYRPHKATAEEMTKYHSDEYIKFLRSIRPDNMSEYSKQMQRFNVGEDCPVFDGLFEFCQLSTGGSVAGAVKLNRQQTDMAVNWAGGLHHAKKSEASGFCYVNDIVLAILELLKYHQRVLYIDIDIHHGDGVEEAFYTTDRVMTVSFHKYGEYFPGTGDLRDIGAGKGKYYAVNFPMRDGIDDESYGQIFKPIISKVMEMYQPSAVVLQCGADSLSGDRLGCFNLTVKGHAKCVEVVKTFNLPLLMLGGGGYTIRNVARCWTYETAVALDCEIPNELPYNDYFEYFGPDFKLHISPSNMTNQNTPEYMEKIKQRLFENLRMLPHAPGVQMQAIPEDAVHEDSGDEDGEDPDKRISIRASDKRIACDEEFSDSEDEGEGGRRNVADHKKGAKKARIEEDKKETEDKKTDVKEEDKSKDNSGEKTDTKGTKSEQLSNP

Sequence of Cyclin-dependent kinase 4/cyclin D1 (P11802 whole entry): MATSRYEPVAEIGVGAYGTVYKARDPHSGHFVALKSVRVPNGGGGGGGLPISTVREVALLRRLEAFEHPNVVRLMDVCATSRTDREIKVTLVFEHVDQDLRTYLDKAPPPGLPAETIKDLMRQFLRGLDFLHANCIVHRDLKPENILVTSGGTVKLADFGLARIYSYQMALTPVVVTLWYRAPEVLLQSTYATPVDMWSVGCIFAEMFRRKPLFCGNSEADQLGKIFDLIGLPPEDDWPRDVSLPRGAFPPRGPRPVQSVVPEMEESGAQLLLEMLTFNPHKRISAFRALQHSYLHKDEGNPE
Sequence of Cyclin-dependent kinase 4/cyclin D1 (P24385 whole entry, further chain): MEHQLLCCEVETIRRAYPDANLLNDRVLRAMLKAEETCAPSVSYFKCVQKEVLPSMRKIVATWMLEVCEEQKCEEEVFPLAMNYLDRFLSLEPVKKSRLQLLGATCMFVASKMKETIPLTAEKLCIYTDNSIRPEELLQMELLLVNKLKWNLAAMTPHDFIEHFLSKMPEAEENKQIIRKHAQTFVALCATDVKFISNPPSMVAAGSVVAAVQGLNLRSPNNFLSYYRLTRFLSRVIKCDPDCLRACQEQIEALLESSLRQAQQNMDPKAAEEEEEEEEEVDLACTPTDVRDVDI
Sequence of Cyclin-dependent kinase 7/ cyclin H (P51946 whole entry): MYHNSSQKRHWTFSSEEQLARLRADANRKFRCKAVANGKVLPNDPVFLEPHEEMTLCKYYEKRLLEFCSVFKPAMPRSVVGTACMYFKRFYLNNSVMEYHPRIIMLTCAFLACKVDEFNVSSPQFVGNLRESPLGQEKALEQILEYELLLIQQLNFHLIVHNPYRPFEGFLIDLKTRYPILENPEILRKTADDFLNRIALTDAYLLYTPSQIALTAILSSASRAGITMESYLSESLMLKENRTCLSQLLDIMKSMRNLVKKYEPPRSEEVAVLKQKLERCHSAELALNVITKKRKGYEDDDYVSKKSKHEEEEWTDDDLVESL
Sequence of Cyclin-dependent kinase 7/ cyclin H (P50613 whole entry): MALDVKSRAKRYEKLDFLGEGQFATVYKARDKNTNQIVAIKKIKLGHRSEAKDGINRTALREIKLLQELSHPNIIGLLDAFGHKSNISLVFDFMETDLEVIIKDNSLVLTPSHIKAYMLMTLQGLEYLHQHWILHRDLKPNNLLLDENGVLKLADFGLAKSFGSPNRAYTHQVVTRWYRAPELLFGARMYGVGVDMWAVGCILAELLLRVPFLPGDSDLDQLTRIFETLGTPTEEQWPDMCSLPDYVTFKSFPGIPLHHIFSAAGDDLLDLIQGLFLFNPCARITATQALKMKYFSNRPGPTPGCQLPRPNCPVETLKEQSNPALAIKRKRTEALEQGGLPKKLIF
Sequence of CDK6/cyclin D3 (P30281 whole entry): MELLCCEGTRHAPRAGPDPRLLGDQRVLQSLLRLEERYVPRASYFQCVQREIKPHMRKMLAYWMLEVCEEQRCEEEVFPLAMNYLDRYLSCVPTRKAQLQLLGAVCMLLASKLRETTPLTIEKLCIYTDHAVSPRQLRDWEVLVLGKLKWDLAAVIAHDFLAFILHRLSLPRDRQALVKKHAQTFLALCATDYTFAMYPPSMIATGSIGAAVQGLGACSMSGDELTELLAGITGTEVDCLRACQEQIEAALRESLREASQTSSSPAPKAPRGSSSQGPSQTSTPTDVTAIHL
Sequence of CDK6/cyclin D3 (Q00534 whole entry): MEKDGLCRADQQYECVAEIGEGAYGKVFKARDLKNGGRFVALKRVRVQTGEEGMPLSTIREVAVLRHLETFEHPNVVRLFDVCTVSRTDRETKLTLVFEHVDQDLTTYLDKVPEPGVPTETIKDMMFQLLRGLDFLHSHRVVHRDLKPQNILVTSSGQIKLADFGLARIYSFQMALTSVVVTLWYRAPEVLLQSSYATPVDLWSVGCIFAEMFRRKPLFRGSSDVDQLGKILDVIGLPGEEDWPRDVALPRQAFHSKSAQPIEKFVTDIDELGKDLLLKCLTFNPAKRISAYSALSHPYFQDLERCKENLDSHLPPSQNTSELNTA

Structure (SMILES) | IC50 (SMMC-7721) [µM] | IC50 (HeLa) [µM] | IC50 (NCI-H460 [7]) [µM] | IC50 (A-375 [8]) [µM] | IC50 (HCT-116 [9]) [µM] | IC50 (CDK6/cyclin D3) [µM] | IC50 [12] [µM] | IC50 [14] [µM] | IC50 (Histone deacetylase 2) [µM] | inhibition (A-375 [1]) | IC50 [2] [µM] | inhibition of growth at 2 µM (NCI-H460 [3]) [%] | Activity (A-375 [4]) [%] | inhibition of growth at 2 µM (HCT-116 [5]) [%] | inhibition of growth at 8 µM (HCT-116 [6]) [%] | Activity (HCT-116 [10]) [%] | inhibition of growth at 8 µM (NCI-H460 [11]) [%] | inhibition (NCI-H460 [13])
O=C(Nc1ccc(F)cc1)c1n[nH]cc1NC(=O)c1c(F)cccc1F | 23.2 | 8.23 | 9.46 | 13.4 | 1.96 | > 1 | > 1 | > 1 |  | Active | 7.85 | 21.3 | 66.71 | 57.6 | 74 | 48 | 59.1 | Active
Nc1ccccc1NC(=O)c1ccc(CNC(=O)c2n[nH]cc2NC(=O)c2c(F)cccc2Cl)cc1 | 16.3 | 3.27 | 3.63 | 1.2 | 0.7 |  |  |  |  |  |  | 50.1 |  | 78.7 | 83.8 |  | 75 | 
COc1ccccc1C(=O)Nc1c[nH]nc1C(=O)NCc1ccc(C(=O)Nc2ccccc2N)cc1 | 8.32 | 8.13 | 7.35 | 2.66 | 3.68 |  |  |  |  |  |  | 5.73 |  | 23.5 | 75.4 |  | 45.5 | 

Further compounds by falling IC50 (SMMC-7721), results first:

IC50 (SMMC-7721) [µM] | IC50 (HeLa) [µM] | IC50 (NCI-H460 [7]) [µM] | IC50 (A-375 [8]) [µM] | IC50 (HCT-116 [9]) [µM] | IC50 (CDK6/cyclin D3) [µM] | IC50 [12] [µM] | IC50 [14] [µM] | IC50 (Histone deacetylase 2) [µM] | Structure (SMILES) | inhibition (A-375 [1]) | IC50 [2] [µM] | inhibition of growth at 2 µM (NCI-H460 [3]) [%] | Activity (A-375 [4]) [%] | inhibition of growth at 2 µM (HCT-116 [5]) [%] | inhibition of growth at 8 µM (HCT-116 [6]) [%] | Activity (HCT-116 [10]) [%] | inhibition of growth at 8 µM (NCI-H460 [11]) [%] | inhibition (NCI-H460 [13])
25.6 | 14.9 | > 32 | 4.11 | 2.77 |  |  |  | 0.023 | Nc1ccc(F)cc1NC(=O)c1ccc(CNC(=O)/C=C/c2cccnc2)cc1 | Active | 2.46 | 1.73 | 62.6 | 64.4 | 72.2 | 44.3 | 38.2 | Active
16.7 | 6.61 | 23.7 | 3.01 | 2.2 |  |  |  |  | O=C(NO)c1ccc(CNC(=O)c2n[nH]cc2NC(=O)c2ccccc2F)cc1 |  |  | 23.5 |  | 51 | 77 |  | 57.1 | 
14.4 | 4.3 | 5.34 | 2.89 | 2.57 |  |  |  |  | Nc1ccccc1NC(=O)Cc1ccc(NC(=O)c2n[nH]cc2NC(=O)c2c(F)cccc2Cl)cc1 |  |  | 16.4 |  | 60.4 | 74.3 |  | 75.1 | 
